For assay [1], the target named is T1, CtRocCOR (Chlorobaculum tepidum, UniProt Q8KC98).
T1 construct: gene CT1526; RocCOR tandem, AA 412-946, recombinant, homodimer; MTSSL spin-labelled for EPR
As to the kind of experiment: GTPase activity assay. It is filed as biochemical.

The target of assay [2] is T1, CtRocCOR. The assay can be described thus: DEER pulse EPR inter-spin distance change upon nucleotide binding. Conditions: 1 mM GppNHp, 150 mM NaCl, 30 mM Tris/HCl, 5 mM MgCl2, pH 7.5, 5% glycerol, 50 K; protein spin-labelled with MTSSL at native Cys600 (C600R1).

T1 sequence (Q8KC98 entry or part of it): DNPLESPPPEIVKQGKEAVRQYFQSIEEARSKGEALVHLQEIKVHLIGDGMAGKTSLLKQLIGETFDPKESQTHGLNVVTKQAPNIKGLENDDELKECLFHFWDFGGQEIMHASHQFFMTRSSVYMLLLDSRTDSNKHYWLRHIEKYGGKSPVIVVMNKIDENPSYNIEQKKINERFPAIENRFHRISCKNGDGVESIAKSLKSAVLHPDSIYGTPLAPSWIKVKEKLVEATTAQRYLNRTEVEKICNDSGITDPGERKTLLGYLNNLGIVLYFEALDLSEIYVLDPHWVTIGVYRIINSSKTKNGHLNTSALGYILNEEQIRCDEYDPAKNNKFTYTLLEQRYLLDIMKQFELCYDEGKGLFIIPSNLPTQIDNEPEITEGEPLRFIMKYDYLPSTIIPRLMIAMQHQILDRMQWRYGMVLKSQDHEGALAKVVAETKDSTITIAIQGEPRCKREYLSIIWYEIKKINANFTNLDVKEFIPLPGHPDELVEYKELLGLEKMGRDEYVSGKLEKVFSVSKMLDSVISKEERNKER

In the case of `Nc1nc2c(ncn2[C@@H]2O[C@H](COP(=O)(O)OP(=O)(O)OP(=O)(O)O)[C@@H](O)[C@H]2O)c(=O)[nH]1` [GTP], the GTPase activity assay result on CtRocCOR [1] is listed as “No significant impairment of GTPase activity by the mutations in comparison with wild-type”.

Take `Nc1nc2c(ncn2[C@@H]2O[C@H](COP(=O)(O)OP(=O)(O)NP(=O)(O)O)[C@@H](O)[C@H]2O)c(=O)[nH]1` [GppNHp]: the “DEER pulse EPR inter-spin distance change upon nucleotide binding” value at CtRocCOR [2] is reported as “in the presence of GppNHp, GDP·AlFx or GDP (Figure 2c) reveal changes upon nt binding”.
